Patent publication EP0377642B1, “HERBICIDES FOR WEED CONTROL IN RICE” (E.I. DU PONT DE NEMOURS AND COMPANY, priority 1987, dated 1989)

Experiments:
Type in all cases: in vivo
Sphenoclea zeylanica = assay: Field test, herbicidal efficacy in rice, Thailand, applied 36 days after seeding (Table 1); conditions: Trial 2, 100=complete control
Source text: (§1) Methyl 2-[[[[(4-methoxy-6-methyl-1,3,5-triazin-2-yl)amino]carbonyl]amino]sulfonyl]benzoate (Compound 1) and mixtures thereof with other compounds were applied as a spray (using a hand sprayer) to rice (either transplanted or direct seeded) in several rice growing areas in Southeast Asia and in the U.S. Tables 1-28 contain the results of these tests and clearly exemplify the utility of this invention. The details of each application are included in the appropriate table. [drawing 2]

Cyperus species = assay: as above; conditions: 100=complete control
Source text: as §1

rice [1] = assay: Effects on rice growth in Thailand, phytotoxicity (Table 4); conditions: scale 0-10
Source text: as §1

rice [2] = assay: Herbicidal efficacy in United States (Table 16); conditions: 57 days after application
Source text: as §1

rice [3] = assay: Late-post application in Beaumont, Texas, with 0.25% AG-98 (Table 9); conditions: 70 days after seeding
Source text: as §1

Annual sedge (?) = assay: as above; conditions: 70 days after seeding
Source text: as §1

Commelina communis = assay: as above; conditions: 70 days after seeding
Source text: as §1

Echinochloa colonum = assay: as above; conditions: 70 days after seeding
Source text: as §1

Eclipta alba = assay: as above; conditions: 70 days after seeding
Source text: as §1

Sesbania exaltata = assay: as above; conditions: 70 days after seeding
Source text: as §1

Caperonia castaniifolia = assay: as above; conditions: 70 days after seeding
Source text: as §1

Aeschynomene indica = assay: as above; conditions: 70 days after seeding
Source text: as §1

FIMBRISTYLIS MILIACEA = assay: Herbicidal efficacy alone and with 2,4-D in Thailand (Table 3); conditions: 6 weeks after application
Source text: as §1

## COC(=O)c1ccccc1S(=O)(=O)NC(=O)Nc1nc(C)nc(OC)n1 [Compound 1, Methyl 2-[[[[(4-methoxy-6-methyl-1,3,5-triazin-2-yl)amino]carbonyl]amino]sulfonyl]benzoate]
Sphenoclea zeylanica; 3 GAI/HA
  Herbicidal efficacy SZ 6WAA: 100
Sphenoclea zeylanica; 4 GAI/HA
  Herbicidal efficacy SZ 2WAA: 99
  Herbicidal efficacy SZ 4WAA: 99
  Herbicidal efficacy SZ 6WAA: 100
Sphenoclea zeylanica; 6 GAI/HA
  Herbicidal efficacy SZ 2WAA: 100
  Herbicidal efficacy SZ 4WAA: 100
  Herbicidal efficacy SZ 6WAA: 100
Cyperus species; Trial 1, 2 GAI/HA
  Herbicidal efficacy CY 2WAA: 33
Cyperus species; Trial 1, 3 GAI/HA
  Herbicidal efficacy CY 2WAA: 67
Cyperus species; Trial 1, 4 GAI/HA
  Herbicidal efficacy CY 2WAA: 67
Cyperus species; Trial 1, 6 GAI/HA
  Herbicidal efficacy CY 2WAA: 67
Cyperus species; Trial 2, 2 GAI/HA
  Herbicidal efficacy CY 2WAA: 0
Cyperus species; Trial 2, 3 GAI/HA
  Herbicidal efficacy CY 2WAA: 67
Cyperus species; Trial 2, 4 GAI/HA
  Herbicidal efficacy CY 2WAA: 33
Cyperus species; Trial 2, 6 GAI/HA
  Herbicidal efficacy CY 2WAA: 67
Rice [1]; applied 7 DAS, 3 GAI/HA
  PHYTOTOXICITY: 1.67
Rice [1]; applied 7 DAS, 6 GAI/HA
  PHYTOTOXICITY: 1.67
Rice [1]; applied 14 DAS, 3 GAI/HA
  PHYTOTOXICITY: 1.0
Rice [1]; applied 14 DAS, 6 GAI/HA
  PHYTOTOXICITY: 1.0
Rice [1]; applied 21 DAS, 3 GAI/HA
  PHYTOTOXICITY: 0.67
Rice [1]; applied 21 DAS, 6 GAI/HA
  PHYTOTOXICITY: 1.0
Rice [1]; applied 28 DAS, 3 GAI/HA
  PHYTOTOXICITY: 0
Rice [1]; applied 28 DAS, 6 GAI/HA
  PHYTOTOXICITY: 0
Rice [2]; 7 GAI/HA
  % CONTROL OR INJURY RICE: 3%
Rice [2]; 14 GAI/HA
  % CONTROL OR INJURY RICE: 10%
Rice [2]; 21 GAI/HA
  % CONTROL OR INJURY RICE: 5%
Rice [3]; 3 G/HA
  % INJURY OR CONTROL RICE: 3%
Rice [3]; 6 G/HA
  % INJURY OR CONTROL RICE: 5%
Rice [3]; 12 G/HA
  % INJURY OR CONTROL RICE: 6%
Annual sedge (?); 3 G/HA
  % INJURY OR CONTROL SEDGE: 43%
Annual sedge (?); 6 G/HA
  % INJURY OR CONTROL SEDGE: 56%
Annual sedge (?); 12 G/HA
  % INJURY OR CONTROL SEDGE: 56%
Commelina communis; 3 G/HA
  % INJURY OR CONTROL COM: 13%
Commelina communis; 6 G/HA
  % INJURY OR CONTROL COM: 24%
Commelina communis; 12 G/HA
  % INJURY OR CONTROL COM: 23%
Echinochloa colonum; 3 G/HA
  % INJURY OR CONTROL EC: 26%
Echinochloa colonum; 6 G/HA
  % INJURY OR CONTROL EC: 30%
Echinochloa colonum; 12 G/HA
  % INJURY OR CONTROL EC: 24%
Eclipta alba; 3 G/HA
  % INJURY OR CONTROL EA: 13%
Eclipta alba; 6 G/HA
  % INJURY OR CONTROL EA: 23%
Eclipta alba; 12 G/HA
  % INJURY OR CONTROL EA: 15%
Sesbania exaltata; 3 G/HA
  % INJURY OR CONTROL SE: 68%
Sesbania exaltata; 6 G/HA
  % INJURY OR CONTROL SE: 62%
Sesbania exaltata; 12 G/HA
  % INJURY OR CONTROL SE: 46%
Caperonia castaniifolia; 3 G/HA
  % INJURY OR CONTROL CC: 11%
Caperonia castaniifolia; 6 G/HA
  % INJURY OR CONTROL CC: 19%
Caperonia castaniifolia; 12 G/HA
  % INJURY OR CONTROL CC: 18%
Aeschynomene indica; 3 G/HA
  % INJURY OR CONTROL AI: 68%
Aeschynomene indica; 6 G/HA
  % INJURY OR CONTROL AI: 62%
Aeschynomene indica; 12 G/HA
  % INJURY OR CONTROL AI: 46%
FIMBRISTYLIS MILIACEA; applied 7 DAS, 3 GAI/HA
  FIMBRISTYLIS MILIACEA CONTROL: 53%
FIMBRISTYLIS MILIACEA; applied 7 DAS, 6 GAI/HA
  FIMBRISTYLIS MILIACEA CONTROL: 73%
FIMBRISTYLIS MILIACEA; applied 14 DAS, 3 GAI/HA
  FIMBRISTYLIS MILIACEA CONTROL: 20%
FIMBRISTYLIS MILIACEA; applied 14 DAS, 6 GAI/HA
  FIMBRISTYLIS MILIACEA CONTROL: 40%
FIMBRISTYLIS MILIACEA; applied 21 DAS, 3 GAI/HA
  FIMBRISTYLIS MILIACEA CONTROL: 0%
FIMBRISTYLIS MILIACEA; applied 21 DAS, 6 GAI/HA
  FIMBRISTYLIS MILIACEA CONTROL: 0%
FIMBRISTYLIS MILIACEA; applied 28 DAS, 3 GAI/HA
  FIMBRISTYLIS MILIACEA CONTROL: 0%
FIMBRISTYLIS MILIACEA; applied 28 DAS, 6 GAI/HA
  FIMBRISTYLIS MILIACEA CONTROL: 0%
